Paper PMC10436550, “Subacute toxicity evaluations of LPM3480392 in rats, a full µ-opioid receptor biased agonist” (Frontiers in Pharmacology, 2023)
pEC50: −log10 of the molar value.

Assays:
[1] = Food consumption, 4-week subacute toxicity study; assay type: in vivo, Sprague Dawley (SD) rats
Method: Food consumption of all surviving animals was recorded twice a week during the dosing phase and then once a week in last 2 weeks of recovery phase.

µ-opioid receptor (MOR) = tested on: µ-opioid receptor (MOR); design: method as in Yang et al., 2022; conditions: ref Yang et al., 2022, cited from earlier work
[2] = female rats, 0.6 mg/kg/day, Day 3
[3] = female rats, 0.6 mg/kg/day, Day 7
[4] = female rats, 0.6 mg/kg/day, Day 10
[5] = female rats, 0.6 mg/kg/day, Day 14
[6] = female rats, 0.6 mg/kg/day, Day 17
[7] = female rats, 0.6 mg/kg/day, Day 21
[8] = female rats, 0.6 mg/kg/day, Day 24
[9] = female rats, 0.6 mg/kg/day, Day 28
[10] = female rats, 0.6 mg/kg/day, Recovery day 20
[11] = female rats, 0.6 mg/kg/day, Recovery day 27
[12] = female rats, 1.2 mg/kg/day, Day 3
[13] = female rats, 1.2 mg/kg/day, Day 7
[14] = female rats, 1.2 mg/kg/day, Day 10
[15] = female rats, 1.2 mg/kg/day, Day 14
[16] = female rats, 1.2 mg/kg/day, Day 17
[17] = female rats, 1.2 mg/kg/day, Day 21
[18] = female rats, 1.2 mg/kg/day, Day 24
[19] = female rats, 1.2 mg/kg/day, Day 28
[20] = female rats, 1.2 mg/kg/day, Recovery day 20
[21] = female rats, 1.2 mg/kg/day, Recovery day 27
[22] = female rats, 2.4 mg/kg/day, Day 3
[23] = female rats, 2.4 mg/kg/day, Day 7
[24] = female rats, 2.4 mg/kg/day, Day 10
[25] = female rats, 2.4 mg/kg/day, Day 14
[26] = female rats, 2.4 mg/kg/day, Day 17
[27] = female rats, 2.4 mg/kg/day, Day 21
[28] = female rats, 2.4 mg/kg/day, Day 24
[29] = female rats, 2.4 mg/kg/day, Day 28
[30] = female rats, 2.4 mg/kg/day, Recovery day 20
[31] = female rats, 2.4 mg/kg/day, Recovery day 27
[32] = male rats, 0.6 mg/kg/day, Day 3
[33] = male rats, 0.6 mg/kg/day, Day 7
[34] = male rats, 0.6 mg/kg/day, Day 10
[35] = male rats, 0.6 mg/kg/day, Day 14
[36] = male rats, 0.6 mg/kg/day, Day 17
[37] = male rats, 0.6 mg/kg/day, Day 21
[38] = male rats, 0.6 mg/kg/day, Day 24
[39] = male rats, 0.6 mg/kg/day, Day 28
[40] = male rats, 0.6 mg/kg/day, Recovery day 20
[41] = male rats, 0.6 mg/kg/day, Recovery day 27
[42] = male rats, 1.2 mg/kg/day, Day 3
[43] = male rats, 1.2 mg/kg/day, Day 7
[44] = male rats, 1.2 mg/kg/day, Day 10
[45] = male rats, 1.2 mg/kg/day, Day 14
[46] = male rats, 1.2 mg/kg/day, Day 17
[47] = male rats, 1.2 mg/kg/day, Day 21
[48] = male rats, 1.2 mg/kg/day, Day 24
[49] = male rats, 1.2 mg/kg/day, Day 28
[50] = male rats, 1.2 mg/kg/day, Recovery day 20
[51] = male rats, 1.2 mg/kg/day, Recovery day 27
[52] = male rats, 2.4 mg/kg/day, Day 3
[53] = male rats, 2.4 mg/kg/day, Day 7
[54] = male rats, 2.4 mg/kg/day, Day 10
[55] = male rats, 2.4 mg/kg/day, Day 14
[56] = male rats, 2.4 mg/kg/day, Day 17
[57] = male rats, 2.4 mg/kg/day, Day 21
[58] = male rats, 2.4 mg/kg/day, Day 24
[59] = male rats, 2.4 mg/kg/day, Day 28
[60] = male rats, 2.4 mg/kg/day, Recovery day 20
[61] = male rats, 2.4 mg/kg/day, Recovery day 27

Question: Which results are given for Fc1ccc([C@]2(CCNCc3cccc(Cl)c3)CCO[C@]3(CCOC3)C2)nc1 [LPM3480392]?
Answer: Food consumption [1, 2]: 12.6 ± 1.3 g/animal/cage/day; Food consumption change rate [1, 2]: −14.86%; Food consumption [1, 3]: 15.4 ± 1.1 g/animal/cage/day; Food consumption change rate [1, 3]: 1.32%; Food consumption [1, 4]: 15.9 ± 1.1 g/animal/cage/day; Food consumption change rate [1, 4]: −3.05%; Food consumption [1, 5]: 16.0 ± 0.5 g/animal/cage/day; Food consumption change rate [1, 5]: −15.79%; Food consumption [1, 6]: 15.8 ± 1.0 g/animal/cage/day; Food consumption change rate [1, 6]: 9.72%; Food consumption [1, 7]: 15.7 ± 0.7 g/animal/cage/day; Food consumption change rate [1, 7]: −1.88%; Food consumption [1, 8]: 14.9 ± 1.4 g/animal/cage/day; Food consumption change rate [1, 8]: −6.29%; Food consumption [1, 9]: 16.4 ± 0.9 g/animal/cage/day; Food consumption change rate [1, 9]: −0.61%; Food consumption [1, 10]: 15.9 g/animal/cage/day; Food consumption change rate [1, 10]: −5.36%; Food consumption [1, 11]: 13.3 g/animal/cage/day; Food consumption change rate [1, 11]: −15.82%; Food consumption [1, 12]: 14.9 ± 1.1 g/animal/cage/day; Food consumption change rate [1, 12]: 0.68%; Food consumption [1, 13]: 15.0 ± 1.3 g/animal/cage/day; Food consumption change rate [1, 13]: −1.32%; Food consumption [1, 14]: 15.2 ± 0.6 g/animal/cage/day; Food consumption change rate [1, 14]: −7.32%; Food consumption [1, 15]: 15.7 ± 0.9 g/animal/cage/day; Food consumption change rate [1, 15]: −17.37%; Food consumption [1, 16]: 16.6 ± 0.2 g/animal/cage/day; Food consumption change rate [1, 16]: 15.28%; Food consumption [1, 17]: 15.8 ± 1.4 g/animal/cage/day; Food consumption change rate [1, 17]: −1.25%; Food consumption [1, 18]: 16.6 ± 1.7 g/animal/cage/day; Food consumption change rate [1, 18]: 4.40%; Food consumption [1, 19]: 16.4 ± 0.8 g/animal/cage/day; Food consumption change rate [1, 19]: −0.61%; Food consumption [1, 20]: 15.1 g/animal/cage/day; Food consumption change rate [1, 20]: −10.12%; Food consumption [1, 21]: 16.7 g/animal/cage/day; Food consumption change rate [1, 21]: 5.70%; Food consumption [1, 22]: 13.0 ± 2.1 g/animal/cage/day; Food consumption change rate [1, 22]: −12.16%; Food consumption [1, 23]: 15.8 ± 1.9 g/animal/cage/day; Food consumption change rate [1, 23]: 3.95%; Food consumption [1, 24]: 15.1 ± 0.8 g/animal/cage/day; Food consumption change rate [1, 24]: −7.93%; Food consumption [1, 25]: 17.5 ± 1.0 g/animal/cage/day; Food consumption change rate [1, 25]: −7.89%; Food consumption [1, 26]: 15.1 ± 1.0 g/animal/cage/day; Food consumption change rate [1, 26]: 4.86%; Food consumption [1, 27]: 17.5 ± 1.3 g/animal/cage/day; Food consumption change rate [1, 27]: 9.38%; Food consumption [1, 28]: 15.6 ± 1.2 g/animal/cage/day; Food consumption change rate [1, 28]: −1.89%; Food consumption [1, 29]: 16.7 ± 0.8 g/animal/cage/day; Food consumption change rate [1, 29]: 1.21%; Food consumption [1, 30]: 16.4 g/animal/cage/day; Food consumption change rate [1, 30]: −2.38%; Food consumption [1, 31]: 15.0 g/animal/cage/day; Food consumption change rate [1, 31]: −5.06%; Food consumption [1, 32]: 19.7 ± 0.1 g/animal/cage/day; Food consumption change rate [1, 32]: −2.96%; Food consumption [1, 33]: 20.8 ± 0.6 g/animal/cage/day; Food consumption change rate [1, 33]: −8.37%; Food consumption [1, 34]: 23.0 ± 1.6 g/animal/cage/day; Food consumption change rate [1, 34]: −17.56%; Food consumption [1, 35]: 21.0 ± 1.3 g/animal/cage/day; Food consumption change rate [1, 35]: −17.32%; Food consumption [1, 36]: 21.1 ± 1.9 g/animal/cage/day; Food consumption change rate [1, 36]: −11.34%; Food consumption [1, 37]: 21.6 ± 0.8 g/animal/cage/day; Food consumption change rate [1, 37]: −9.24%; Food consumption [1, 38]: 20.6 ± 1.0 g/animal/cage/day; Food consumption change rate [1, 38]: −8.04%; Food consumption [1, 39]: 22.9 ± 1.2 g/animal/cage/day; Food consumption change rate [1, 39]: −5.76%; Food consumption [1, 40]: 25.2 g/animal/cage/day; Food consumption change rate [1, 40]: 0.40%; Food consumption [1, 41]: 22.3 g/animal/cage/day; Food consumption change rate [1, 41]: 0.90%; Food consumption [1, 42]: 19.2 ± 0.9 g/animal/cage/day; Food consumption change rate [1, 42]: −5.42%; Food consumption [1, 43]: 20.5 ± 0.7 g/animal/cage/day; Food consumption change rate [1, 43]: −9.69%; Food consumption [1, 44]: 20.4 ± 1.8 g/animal/cage/day; Food consumption change rate [1, 44]: −26.88%; Food consumption [1, 45]: 20.2 ± 0.7 g/animal/cage/day; Food consumption change rate [1, 45]: −20.47%; Food consumption [1, 46]: 20.5 ± 1.7 g/animal/cage/day; Food consumption change rate [1, 46]: −13.87%; Food consumption [1, 47]: 23.2 ± 1.2 g/animal/cage/day; Food consumption change rate [1, 47]: −2.52%; Food consumption [1, 48]: 22.2 ± 1.1 g/animal/cage/day; Food consumption change rate [1, 48]: −0.89%; Food consumption [1, 49]: 22.5 ± 1.3 g/animal/cage/day; Food consumption change rate [1, 49]: −7.41%; Food consumption [1, 50]: 24.5 g/animal/cage/day; Food consumption change rate [1, 50]: −2.39%; Food consumption [1, 51]: 22.6 g/animal/cage/day; Food consumption change rate [1, 51]: 2.26%; Food consumption [1, 52]: 17.8 ± 0.8 g/animal/cage/day; Food consumption change rate [1, 52]: −12.32%; Food consumption [1, 53]: 20.0 ± 2.3 g/animal/cage/day; Food consumption change rate [1, 53]: −11.89%; Food consumption [1, 54]: 20.1 ± 1.9 g/animal/cage/day; Food consumption change rate [1, 54]: −27.96%; Food consumption [1, 55]: 17.3 ± 5.2 g/animal/cage/day; Food consumption change rate [1, 55]: −31.89%; Food consumption [1, 56]: 20.1 ± 0.7 g/animal/cage/day; Food consumption change rate [1, 56]: −15.55%; Food consumption [1, 57]: 23.2 ± 1.1 g/animal/cage/day; Food consumption change rate [1, 57]: −2.52%; Food consumption [1, 58]: 22.1 ± 3.0 g/animal/cage/day; Food consumption change rate [1, 58]: −1.34%; Food consumption [1, 59]: 22.5 ± 1.9 g/animal/cage/day; Food consumption change rate [1, 59]: −7.41%; Food consumption [1, 60]: 24.0 g/animal/cage/day; Food consumption change rate [1, 60]: −4.38%; Food consumption [1, 61]: 23.8 g/animal/cage/day; Food consumption change rate [1, 61]: 7.69%; Emax, β-arrestin-2 recruitment activity (µ-opioid receptor (MOR)): 1.6%; pEC50 (µ-opioid receptor (MOR); read-out: EC50, β-arrestin-2 recruitment activity): < 4.52
